Legend:
[1] = Serum testosterone after intravenous alpidem in rats (dosing studies); format: in vivo; details: adult Sprague-Dawley rats
Experimental: Alpidem was suspended in isotonic saline by sonication and administered intravenously to adult Sprague-Dawley rats (200-300 g). The doses used ranged from 0.01-1.5 mg/kg, the highest concentration being just below the level needed for behavioral effects to be observed. Control rats were injected with saline alone to serve as control for measurement of basal serum levels of testosterone. After specific times the rats were killed by decapitation and blood was collected. Serum was prepared and testosterone was measured by radioimmunoassay. Each point included three rats for all permutations of each time point and concentration of alpidem used.

[2] = biological target: T1, peripheral-type benzodiazepine receptor (PBR) in Y-1 cells (Mus musculus, UniProt P50637); experiment: [3H]PK 11195 binding in Y-1 adrenocortical cells; details: 37° C.; for rank order of compound displacement potency against [3H]PK 11195 binding: FIG. 2a
T1 construct: Y-1 cell cultures were scraped from the flasks; host or cells: Y-1 mouse adrenal tumor cells
T1 sequence (P50637 whole entry): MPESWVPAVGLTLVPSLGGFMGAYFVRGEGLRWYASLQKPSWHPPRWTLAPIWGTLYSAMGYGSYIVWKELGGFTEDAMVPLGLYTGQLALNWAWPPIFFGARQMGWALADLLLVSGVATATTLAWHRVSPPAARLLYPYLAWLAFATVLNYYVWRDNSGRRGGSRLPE
Experimental: (§1) Cells--The Y-1 adrenal mouse tumor cell line used in these studies was obtained from the American Type Culture Collection (ATCC #CCL 79). Stock cultures were grown in modified Waymouth's MB752/l medium containing 20 mM HEPES, 1.2 g/l NaHCO3, 15% horse serum and 2.5% fetal calf serum, pH 7.4. Before use the cells were washed three times at 30 min intervals, with serum-free media in order to eliminate serum components that may interfere with the assays and were incubated for the indicated time periods in the presence of the drugs under investigation. Bovine fasciculata-reticularis and adrenocortical cells from adult (300 g) Sprague-Dawley rats were prepared as previously described by Yanagibashi et al, (1989) Endocrinology 124; 2838-2391.
Radioligand binding assays--Y-1 cell cultures were scraped from the flasks ([…]) in 5 ml of Kreb's buffer, dispersed by repetitive pipetting, and centrifuged at 1,200 × g for 5 min. The cell pellets were resuspended in Kreb's buffer and larger cellular aggregates were allowed to settle for 5 min. The finely dispersed cell suspensions were taken for further experimentation.
Binding assays were performed in a total volume of 250-400 ul of Kreb's buffer containing [^3 H]PK 11195 (0.07-20 nM) with 5 ug of cellular protein. Incubations were conducted at 37° C. for 30 min and bound radioligand was measured by filtration through Whatman GF/C filters followed by four rapid 5 ml washes with 25 mM Tris-HCl (pH 7.4) containing 1 uM PK 11195. Filters were subjected to liquid scintillation counting. Nonspecific binding was measured in the presence (of 10 uM nonradioactive PK 11195.

[3] = test system: MA-10 Leydig cells; experiment: Progesterone production in MA-10 Leydig cells; format: cell-based, mouse; details: MA-10 cells, 4 hours incubation
Experimental: (§2) Cells--The MA-10 cell line originally cloned from the solid M5480P mouse Leydig cell tumor used in these experiments was obtained from Dr. Mario Ascoli (The Population Council, Rockefeller University, N.Y.). Stock cultures were grown in modified Waymouth's MB752/1 medium containing 20 mM HEPES, 1.2 g/l NaHCO3 and 15% horse serum, pH 7.4 as described by Ascoli (1981) Endocrinology 108, 88-95. Before use, the MA-10 Leydig cells were washed three times, in 30 min intervals, with serum-free media in order to eliminate serum components that may interfere with the assays and incubated for the indicated periods of time in the presence of the indicated substances. Testicular interstitial cells were prepared by enzymatic dissociation of testes obtained from adult Sprague-Dawley (300 g) rats. This preparation contained 20-30% 3β-hydroxysteroid dehydrogenase positive cells (Leydig cells). Leydig cells were further purified using discontinuous Percoll gradient centrifugation as described by Papadopoulos et al., 1985 FEBS Letters 188, 312-316. The preparations obtained contained 75-85% Leydig cells as shown by the histochemical staining for 3β-hydroxysteroid dehydrogenase by the procedure of Papadopoulos et al., FEBS Letters 188, supra. [^3 H]PK 11195 binding assays--Cells were scraped from 75 cm^2 culture flasks into 5 ml of Kreb's buffer, dispersed by trituration, and centrifuged at 1,200 × g for 5 min. The cell pellets were resuspended in buffer and larger cell aggregates were allowed to settle to the bottom of the tube before the cell suspension was retrieved for experimentation.
Steroid Biosynthesis--These experiments were performed with the MA-10 Leydig cells plated in 12×22 mm wells and incubated for the times shown and in the presence of the indicated substances at a final volume of 1 ml of serum-free media at 37° C. […]
Progesterone and 20-γ-hydroxyprogesterone production for the MA-10 cells, and testosterone accumulation for the rat Leydig cells were measured by means of radioimmunoassay. […]

[4] = test system: purified rat Leydig cells; experiment: Testosterone production by purified rat Leydig cells, basal and hCG stimulated; details: for Testosterone, No Additions / stimulation of testosterone production / effect on testosterone production (in words): basal; for Testosterone, No Additions / Testosterone, hCG (50 ng/ml): 4 hours at 32° C., mean ± S.D. n = 3; for Testosterone, No Additions: control 1.30 ± 0.20; for Testosterone, hCG (50 ng/ml): control 15.13 ± 2.05; for stimulation of testosterone production / effect on testosterone production (in words): purified rat Leydig cells; for stimulation of testosterone production: 240 min
[5] = test system: Y-1 adrenocortical cells; experiment: Steroid (20-hydroxyprogesterone) secretion in Y-1 cells; format: cell-based, mouse
Experimental: as §1
Measurement of steroid production--These experiments were performed with the Y-1 cells plated in 12--22 mm wells and incubated for the times shown at a final volume of 1 ml of serum-free media at 37° C. […] Steroid production was determined by measuring 20-γ-hydroxyprogesterone, the main steroid product of these cells, using a radioimmunoassay with an antibody donated by Dr. G. Nieswender (Univ. of Colorado, Fort Collins), under the process described in Kowal J. (1970), Recent Progress in Hormone Research 26, 623-687 and Schimmer B.P. (1981) in Functionally Differentiated Cell Lines, ed. […]

[6] = biological target: T2, PBR in MA-10 cells (Mus musculus, UniProt P50637); experiment: [3H]PK 11195 binding in MA-10 Leydig cells; details: 37° C.
T2 construct: endogenous in cells; host or cells: MA-10 mouse Leydig tumor cells (from Dr. Mario Ascoli)
T2 sequence (P50637 whole entry): as above
Experimental: as §2
[^3 H]PK 11195 binding studies on 5 ug of protein from the cell suspensions were performed in 250-400μl of Kreb's buffer at 37° C., essentially the same conditions under which the
effects of the compounds on steroidogenesis were studied. Nonspecific binding was determined in the presence of 10 μM PK 11195. […] Radioactivity trapped on the filters was determined by liquid scintillation counting. […]

[7] = read-out: dissociation constant (Scatchard analysis)

Q: With `CCCN(CCC)C(=O)Cc1c(-c2ccc(Cl)cc2)nc2ccc(Cl)cn12` [alpidem] as the compound, how does the “time for which elevated testosterone levels were maintained” value [1] read?
A: at least 4 hours

Q: What about the “increase in serum testosterone levels” value ([1]; doses greater than or equal to 0.01 mg/kg) of the same compound?
A: 2-4 times above control levels

Q: And the “rank order of compound displacement potency against [3H]PK 11195 binding” value (“rank order” for short) [2]?
A: alpidem>PK 11195>PK 14067>4'-chlorodiazepam>zolpidem>PK 14608, diazepam>flunitrazepam>clonazepam>flumazenil

Q: What about the “stimulation of progesterone production” value [3] of the same compound?
A: 3 to 4 fold

Q: What about the “Testosterone, No Additions” value ([4]; compound 10^-7 M) of the same compound?
A: 2.35 ± 0.27 ng/10^5 cel s/4 hours

Q: And the “Testosterone, hCG (50 ng/ml)” value ([4]; compound 10^-7 M)?
A: 15.02 ± 2.31 ng/10^5 cel s/4 hours

Q: And the “stimulation of testosterone production” value [4]?
A: about 2 fold

Q: For `CN1C(=O)CN=C(c2ccccc2)c2cc(Cl)ccc21` [diazepam], which “rank order” value [2] is on record?
A: alpidem>PK 11195>PK 14067>4'-chlorodiazepam>zolpidem>PK 14608, diazepam>flunitrazepam>clonazepam>flumazenil

Q: And the “Testosterone, No Additions” value ([4]; compound 10^-5 M)?
A: 1.90 ± 0.10 ng/10^5 cel s/4 hours

Q: And the “Testosterone, hCG (50 ng/ml)” value ([4]; compound 10^-5 M)?
A: 14.96 ± 3.09 ng/10^5 cel s/4 hours

Q: And the “effect on testosterone production (in words)” value [4]?
A: less potent

Q: Which results are given for `CCOC(=O)c1ncn2c1CN(C)C(=O)c1cc(F)ccc1-2` [flumazenil]?
A: rank order of compound displacement potency against [3H]PK 11195 binding [2]: alpidem>PK 11195>PK 14067>4'-chlorodiazepam>zolpidem>PK 14608, diazepam>flunitrazepam>clonazepam>flumazenil; effect on steroid production (in words) [5]: failed to stimulate steroid production

Q: For `CC(Cc1cc(-c2ccccc2)nc2ccccc12)C(=O)N(C)C` (single isomer, unassigned; (-)) [PK 14067, (-) N,N-dimethyl-x-methyl-2-phenyl-4-quinoline propanamide], which “rank order” value [2] is on record?
A: alpidem>PK 11195>PK 14067>4'-chlorodiazepam>zolpidem>PK 14608, diazepam>flunitrazepam>clonazepam>flumazenil

Q: And the “stimulation of progesterone production” value [3]?
A: 3 to 4 fold

Q: What about the “Testosterone, No Additions” value ([4]; compound 10^-6 M) of the same compound?
A: 2.20 ± 0.30 ng/10^5 cel s/4 hours

Q: And the “Testosterone, hCG (50 ng/ml)” value ([4]; compound 10^-6 M)?
A: 14.13 ± 1.49 ng/10^5 cel s/4 hours

Q: Which Bmax [2] does the source give for `CCC(C)N(C)C(=O)c1cc2ccccc2c(-c2ccccc2Cl)n1` (stereo not drawn) [PK 11195, 1-(2-chlorophenyl)-N-methyl-N-(l-methylpropyl)-3-isoquinoline carboxamide] here?
A: 54 pmol/mg of protein

Q: And the “time to reach binding equilibrium” value [2]?
A: ≤ 15 min

Q: What about the “rank order” value [2] of the same compound?
A: alpidem>PK 11195>PK 14067>4'-chlorodiazepam>zolpidem>PK 14608, diazepam>flunitrazepam>clonazepam>flumazenil

Q: What about the Kd [2, 7] of the same compound?
A: 1.8 nM

Q: What about the “density of binding sites” value [6] of the same compound?
A: 56 pmol/mg of protein

Q: And the “time to reach steady-state specific binding” value [6]?
A: 10 min

Q: What about the Kd [6, 7] of the same compound?
A: 1.8 nM

Q: What about the “stimulation of progesterone production” value [3] of the same compound?
A: 3 to 4 fold

Q: What about the “Testosterone, No Additions” value ([4]; compound 10^-6 M) of the same compound?
A: 2.33 ± 0.21 ng/10^5 cel s/4 hours

Q: What about the “Testosterone, hCG (50 ng/ml)” value ([4]; compound 10^-6 M) of the same compound?
A: 14.86 ± 1.51 ng/10^5 cel s/4 hours

Q: And the “stimulation of testosterone production” value [4]?
A: about 2 fold

Q: Which “rank order” value [2] does the source give for `CC(Cc1cc(-c2ccccc2)nc2ccccc12)C(=O)N(C)C` (single isomer, unassigned; (+)) [PK 14068, (+) N,N-dimethyl-x-methyl-2-phenyl-4-quinoline propanamide] here?
A: alpidem>PK 11195>PK 14067>4'-chlorodiazepam>zolpidem>PK 14608, diazepam>flunitrazepam>clonazepam>flumazenil

Q: What about the “Testosterone, No Additions” value ([4]; compound 10^-5 M) of the same compound?
A: 1.16 ± 0.15 ng/10^5 cel s/4 hours

Q: And the “Testosterone, hCG (50 ng/ml)” value ([4]; compound 10^-5 M)?
A: 13.50 ± 1.51 ng/10^5 cel s/4 hours

Q: Which results are given for `O=C1CN=C(c2ccccc2Cl)c2cc([N+](=O)[O-])ccc2N1` [clonazepam]?
A: rank order of compound displacement potency against [3H]PK 11195 binding [2]: alpidem>PK 11195>PK 14067>4'-chlorodiazepam>zolpidem>PK 14608, diazepam>flunitrazepam>clonazepam>flumazenil; effect on steroid production (in words) [5]: failed to stimulate steroid production; Testosterone, No Additions ([4]; compound 10^-5 M): 1.16 ± 0.11 ng/10^5 cel s/4 hours; Testosterone, hCG (50 ng/ml) ([4]; compound 10^-5 M): 14.90 ± 2.22 ng/10^5 cel s/4 hours; effect on testosterone production (in words) [4]: no effect

Q: With `CN1C(=O)CN=C(c2ccccc2F)c2cc([N+](=O)[O-])ccc21` [flunitrazepam] as the compound, how does the “rank order” value [2] read?
A: alpidem>PK 11195>PK 14067>4'-chlorodiazepam>zolpidem>PK 14608, diazepam>flunitrazepam>clonazepam>flumazenil

Q: Which “rank order” value [2] does the source give for `Cc1ccc(-c2nc3ccc(C)cn3c2CC(=O)N(C)C)cc1` [zolpidem] here?
A: alpidem>PK 11195>PK 14067>4'-chlorodiazepam>zolpidem>PK 14608, diazepam>flunitrazepam>clonazepam>flumazenil

Reference: patent US5032595A, “Method of stimulating steroidogenesis with alpidem” (FIDIA-Georgetown Institute for the Neurosciences, priority 1989, dated 1991)
